Minimal effective dose and Activity data for 33 molecules are collected here from ChEMBL document CHEMBL3244250, “Bisamidines of 2,6-diaminoanthraquinone as antiamebic agents” (J Med Chem, 1978).

Data set [1] deals with Entamoeba histolytica. Briefly: Antimicrobial activity against Entamoeba histolytica NIH 200-mu hepatic forms infected in golden hamster assessed as survival rate administered qd for 5 days measured up to 14 days by microscopic analysis. The following applies: for minimal effective dose: read-out: MED. It is filed as functional.
Data set [2] relates to Rattus norvegicus. Put plainly: Toxicity in Wistar albino rat assessed as general listlessness up to 150 mg/kg administered qd for 5 days. Set-up: dose 150 mg/kg. The following applies: in vivo, 120 h. The format is organism-based.
The test system of data set [3] is Rattus norvegicus. Briefly: Toxicity in Wistar albino rat assessed as reduction in water and food intake up to 150 mg/kg administered qd for 5 days. It is filed as organism-based. Also noted: dose 150 mg/kg. The note with it: in vivo, 120 h.
For data set [4], the system named is Syrian golden hamster. Put plainly: Toxicity in golden hamster assessed as reduction in water and food intake up to 150 mg/kg administered qd for 5 days. The format is organism-based, Mesocricetus auratus. Also noted: dose 150 mg/kg. The note with it: in vivo, 120 h.
Data set [5] concerns Entamoeba histolytica. Briefly: Antimicrobial activity against Entamoeba histolytica NIH 200-mu cecal forms infected in Wistar albino rat assessed as cure rate administered qd for 5 days by microscopic analysis. The format is functional. The following applies: for minimal effective dose: 120 h, read-out: MED.
For data set [6], the system named is Syrian golden hamster. Briefly: Toxicity in golden hamster assessed as general listlessness up to 150 mg/kg administered qd for 5 days. The format is organism-based, Mesocricetus auratus. Also noted: dose 150 mg/kg. The following applies: in vivo, 120 h.
Data set [7] relates to Rattus norvegicus. Put plainly: Toxicity in Wistar albino rat assessed as general listlessness administered qd for 5 days. The format is organism-based. The note with it: in vivo, 120 h.
The test system of data set [8] is Syrian golden hamster. Briefly: Toxicity in golden hamster assessed as general listlessness administered qd for 5 days. It is filed as organism-based, Mesocricetus auratus. The following applies: in vivo, 120 h.
The test system of data set [9] is Syrian golden hamster. Briefly: Toxicity in golden hamster assessed as reduction in water and food intake administered qd for 5 days. The format is organism-based, Mesocricetus auratus. The following applies: in vivo, 120 h.
Data set [10] concerns Rattus norvegicus. Put plainly: Toxicity in Wistar albino rat assessed as reduction in water and food intake administered qd for 5 days. It is filed as organism-based. The note with it: in vivo, 120 h.
Data set [11] concerns Salmonella typhimurium. Briefly: Mutagenic activity in Salmonella typhimurium by Ames test. It is filed as toxicity, organism-based. The note with it: salmonella enterica subsp. enterica serovar typhimurium.

Active and inactive are the calls of the source. The calls are words filed in the database; no cut-off is given here.

On to `CCCCN(C)/C(CC)=N/c1ccc2c(c1)C(=O)c1ccc(/N=C(\CC)N(C)CCCC)cc1C2=O`, for which the minimal effective dose in data set [1] is 50 mg/kg; in [5], 20 mg/kg. Further, the Activity entry in data set [2], in [3], in data set [4] and in data set [6] was “Non-toxic” in each case.

As for `C/C(=N\c1ccc2c(c1)C(=O)c1ccc(/N=C(\C)N3CCCCC3)cc1C2=O)N1CCCCC1`, the minimal effective dose in data set [1] turned out to be 100 mg/kg; in [5], 50 mg/kg. Moreover, the Activity entry in [2], in data set [3], in data set [4] and in data set [6] was “Non-toxic” throughout.

Regarding `O=C1c2ccc(N/C3=N/CCCCCC3)cc2C(=O)c2ccc(N/C3=N/CCCCCC3)cc21`, in data set [1], the outcome was inactive. For the same molecule, the Activity result in data set [2], in [3], in [4] and in [6] was “Non-toxic” throughout. For the same molecule, the minimal effective dose in data set [5] is 20 mg/kg.

For the molecule `CN(C)/C=N/c1ccc2c(c1)C(=O)c1ccccc1C2=O`, the Activity entry in data set [7], in data set [8], in data set [9] and in [10] was “Toxic” each time. For the same molecule, the result in [1] and in data set [5] was inactive.

With `CN(C)/C=N\c1ccc(/N=C\N(C)C)c2c1C(=O)c1ccccc1C2=O`, the result in [1] and in data set [5] was inactive.

With `CN(C)/C=N/c1ccc2c(c1)C(=O)c1ccc(/N=C/N(C)C)cc1C2=O`, the Activity entry in [7], in data set [8], in data set [9] and in data set [10] was “Toxic” throughout. Further, the minimal effective dose in data set [1] came to 10 mg/kg; in data set [5] it was 20 mg/kg.

As for `CC/C(=N\c1ccc2c(c1)C(=O)c1ccc(/N=C(\CC)N3CCN(C)CC3)cc1C2=O)N1CCN(C)CC1`, the outcome in data set [1] was inactive. In addition, the Activity entry in data set [2], in [3], in [4] and in [6] was “Non-toxic” in each case. Also, in data set [5], the minimal effective dose came to 20 mg/kg.

For the molecule `CCN(C(C)=O)/C(C)=N/c1ccc2c(c1)C(=O)c1ccc(/N=C(\C)N(CC)C(C)=O)cc1C2=O`, the result in data set [1] and in data set [5] was inactive. Moreover, the Activity result in data set [2], in [3], in data set [4] and in [6] was “Non-toxic” in each case.

Take `O=C1c2ccc(/N=C(\c3ccccc3)N3CCCCC3)cc2C(=O)c2ccc(/N=C(\c3ccccc3)N3CCCCC3)cc21`: in [1], the result was inactive. In addition, in data set [5], the minimal effective dose is 10 mg/kg.

With `C/C(=N/c1cccc2c1C(=O)c1cccc(/N=C(/C)N(C)C)c1C2=O)N(C)C`, the outcome in data set [1] and in data set [5] was inactive.

`CCN(CC)/C(=N/c1ccc2c(c1)C(=O)c1ccc(/N=C(\C3CC3)N(CC)CC)cc1C2=O)C1CC1`: in data set [1], the outcome was inactive. In addition, the minimal effective dose in [5] is 20 mg/kg.

Turning to `CCC/C(=N\c1ccc2c(c1)C(=O)c1ccc(/N=C(\CCC)N(C)C)cc1C2=O)N(C)C`, the minimal effective dose was 50 mg/kg in data set [1] and 20 mg/kg in data set [5].

Turning to `CN(C)/C(=N/c1ccc2c(c1)C(=O)c1ccc(/N=C(\c3ccc(Cl)cc3)N(C)C)cc1C2=O)c1ccc(Cl)cc1`, the results for the minimal effective dose in data set [1] and in data set [5] were 50 mg/kg and 20 mg/kg, respectively. For the same molecule, in data set [11], the Activity result is recorded as “Non-toxic”.

In the case of `CCN(CC)/C(C)=N\c1ccc(/N=C(/C)N(CC)CC)c2c1C(=O)c1ccccc1C2=O`, the outcome in data set [1] and in data set [5] was inactive.

As for `CCS(=O)(=O)CCn1c([N+](=O)[O-])cnc1C` [TINIDAZOLE], the figures for the minimal effective dose in [1] and in data set [5] were 25 mg/kg and 5 mg/kg, respectively.

Turning to `CC(C)N(/C=N/c1ccc2c(c1)C(=O)c1ccc(/N=C/N(C(C)C)C(C)C)cc1C2=O)C(C)C`, the Activity entry in data set [7], in data set [8], in [9] and in data set [10] was “Toxic” in each case. Also, the minimal effective dose in [1] was 100 mg/kg; in [5], 20 mg/kg.

Take `Cc1ncc([N+](=O)[O-])n1CCO` [METRONIDAZOLE]: the minimal effective dose in [1] and in data set [5] was 10 mg/kg in each case.

Turning to `CN/C(C)=N/c1ccc2c(c1)C(=O)c1ccc(/N=C(\C)NC)cc1C2=O`, the outcome in [1] was inactive. The Activity result in data set [2], in [3], in data set [4] and in data set [6] was “Non-toxic” in each case. In addition, the minimal effective dose in data set [5] stood at 10 mg/kg.

Consider `CCCCCCCCN(C)/C=N/c1ccc2c(c1)C(=O)c1ccc(/N=C/N(C)CCCCCCCC)cc1C2=O`, for which the Activity entry in data set [7], in [8], in data set [9] and in data set [10] was “Toxic” each time. Further, the result in data set [1] was inactive. In [5], the minimal effective dose amounted to 50 mg/kg.

`CN(C)/C(=N/c1ccc2c(c1)C(=O)c1ccc(/N=C(\C3CCC3)N(C)C)cc1C2=O)C1CCC1`: the minimal effective dose in [1] turned out to be 50 mg/kg; in data set [5], 20 mg/kg. Also, the Activity entry in data set [11] is on record as “Non-toxic”.

Turning to `C/C(=N\c1ccc2c(c1)C(=O)c1ccc(/N=C(\C)N(C)C)cc1C2=O)N(C)C`, the minimal effective dose worked out at 2.5 mg/kg in [1] and 5 mg/kg in [5]. Moreover, the Activity entry in data set [11], in data set [2], in data set [3], in data set [4] and in data set [6] was “Non-toxic” throughout.

With `CC/C(=N\c1ccc2c(c1)C(=O)c1ccc(/N=C(\CC)N3CCCCC3)cc1C2=O)N1CCCCC1`, the outcome in [1] was inactive. Also, the Activity entry in data set [2], in [3], in [4] and in data set [6] was “Non-toxic” throughout. Further, the minimal effective dose in data set [5] was determined as 50 mg/kg.

In the case of `CC/C(=N\c1ccc2c(c1)C(=O)c1ccc(/N=C(\CC)N(C)C)cc1C2=O)N(C)C`, the minimal effective dose in data set [1] came to 2.5 mg/kg; in data set [5] it was 10 mg/kg. For the same molecule, the Activity result in data set [2], in data set [3], in data set [4] and in data set [6] was “Non-toxic” in each case.

`CCN/C(C)=N/c1ccc2c(c1)C(=O)c1ccc(/N=C(\C)NCC)cc1C2=O`: the outcome in data set [1] was inactive. The Activity result in data set [2], in data set [3], in data set [4] and in data set [6] was “Non-toxic” throughout. Further, the minimal effective dose in data set [5] came to 10 mg/kg.

For the molecule `O=[N+]([O-])c1cncn1CCN1CCOCC1` [NIMORAZOLE], the results for the minimal effective dose in data set [1] and in data set [5] were 100 mg/kg and 20 mg/kg, respectively.

Consider `CC(C)C/C(=N\c1ccc2c(c1)C(=O)c1ccc(/N=C(\CC(C)C)N(C)C)cc1C2=O)N(C)C`, for which the values for the minimal effective dose in data set [1] and in data set [5] were 50 mg/kg and 20 mg/kg, respectively.

In the case of `CCN(CC)/C(C)=N/c1ccc2c(c1)C(=O)c1ccc(/N=C(\C)N(CC)CC)cc1C2=O`, the values for the minimal effective dose in [1] and in data set [5] were 2.5 mg/kg and 10 mg/kg, respectively. Also, the Activity entry in [11], in data set [2], in data set [3], in data set [4] and in data set [6] was “Non-toxic” in each case.

For `O=C1c2ccc(/N=C/N3CCCCC3)cc2C(=O)c2ccc(/N=C/N3CCCCC3)cc21`, the Activity result in data set [7], in data set [8], in data set [9] and in data set [10] was “Toxic” throughout. Also, the figures for the minimal effective dose in [1] and in data set [5] were 100 mg/kg and 20 mg/kg, respectively.

In the case of `CCN(CC)/C(=N/c1ccc2c(c1)C(=O)c1ccc(/N=C(/N(CC)CC)C(C)(C)C)cc1C2=O)C(C)(C)C`, the minimal effective dose in data set [1] is 50 mg/kg; in data set [5], 20 mg/kg.

As for `CN(C)/C=N\c1cccc2c1C(=O)c1cccc(/N=C\N(C)C)c1C2=O`, the result in [1] and in data set [5] was inactive.

`CN(C)/C(=N/c1ccc2c(c1)C(=O)c1ccc(/N=C(\C3CC3)N(C)C)cc1C2=O)C1CC1`: the minimal effective dose stood at 50 mg/kg in data set [1] and 10 mg/kg in [5]. In addition, the Activity entry in data set [11] is “Non-toxic”.

With `C/C(N)=N\c1ccc2c(c1)C(=O)c1ccc(/N=C(\C)N)cc1C2=O`, the result in data set [1] was inactive. The Activity entry in data set [2], in [3], in data set [4] and in data set [6] was “Non-toxic” each time. The minimal effective dose in data set [5] was found to be 10 mg/kg.

With `CC/C(N)=N\c1ccc2c(c1)C(=O)c1ccc(/N=C(/N)CC)cc1C2=O`, the result in [1] and in [5] was inactive. Moreover, the Activity entry in data set [2], in data set [3], in [4] and in [6] was “Non-toxic” throughout.
